Measurements: patent US6303789A, “Benzamides with tetrahydrofuranyloxy substitutents as phosphodiesterase 4 inhibitors” (Byk Gulden Lomberg Chemische Fabrik GmbH, priority 1998, dated 2001)

System: PDE4
Experiment: Inhibition of PDE4 activity (method of Bauer and Schwabe, adapted to microtiter plates)
Format: biochemical
Conditions: inhibitory concentration as -log IC50 (mol/l)

COc1ccc(C(=O)Nc2c(Cl)cncc2Cl)cc1OC1COCC1OC (stereo not shown) [Compound 1, N-(3,5-Dichloropyridin-4-yl)-4-methoxy-3-(4-methoxytetrahydrofuran-3-yloxy)benzamide] and CCOC1COCC1Oc1cc(C(=O)Nc2c(Cl)cncc2Cl)ccc1OC (stereo not shown) [Compound 2, N-(3,5-Dichloropyridin-4-yl)-3-(4-ethoxytetrahydrofuran-3-yloxy)-4-methoxybenzamide] are within 0.2 log units of each other in “Inhibition of the PDE4 activity, -log IC50” value (“Inhibition … -log IC50” for short): 8.24 for the first, 8.25 for the second.

COc1ccc(C(=O)Nc2c(Cl)cncc2Cl)cc1OC1COCC1OCc1ccccc1 (stereo not shown) [Compound 3, N-(3,5-Dichloropyridin-4-yl)-3-(4-benzyloxytetrahydrofuran-3-yloxy)-4-methoxybenzamide] and COc1ccc(C(=O)Nc2c(Cl)cncc2Cl)cc1OC1COCC1OCSC (stereo not shown) [Compound 7, N-(3,5-Dichloropyridin-4-yl)-4-methoxy-3-(4-methylthiomethyloxytetrahydrofuran-3-yloxy)-benzamide] are within 0.2 log units of each other in “Inhibition … -log IC50” value: 8.70 for the first, 8.54 for the second.

Going from COc1ccc(C(=O)Nc2c(Cl)cncc2Cl)c2c1OC1(COCC1OC)C2 (stereo not shown) [Compound 4, N-(3,5-Dichloropyridin-4-yl)-2,3-dihydro-4',7-dimethoxybenzofuran-2-spiro-3'-tetrahydro-furan-4-carboxamide] to COc1ccc(C(=O)Nc2c(Cl)cncc2Cl)c2c1OC1(COCC1OCc1ccccc1)C2 (stereo not shown) [Compound 5, N-(3,5-Dichloropyridin-4-yl)-2,3-dihydro-4'-benzyloxy-7-methoxybenzofuran-2-spiro-3'-tetrahydrofuran-4-carboxamide], the “Inhibition … -log IC50” value rises from 8.11 to 8.58.

With COc1ccc(C(=O)Nc2c(Cl)cncc2Cl)cc1OC1COCC1O (stereo not shown) [Compound 6, N-(3,5-Dichloropyridin-4-yl)-3-(4-hydroxytetrahydrofuran-3-yloxy)-4-methoxybenzamide] the “Inhibition … -log IC50” value was 8.02.
